Test systems include PC-3 prostate; SK-MEL-5 melanoma; HS 578T breast; SNB-75 CNS; OVCAR-3 ovarian; HOP-62 NSCLC; DU-145 prostate; KM12 colon; MALME-3M melanoma; HCC-2998 colon; SF-295 CNS.
Holding throughout (assay): DTP human tumour cell line panel, 48 h

Each structure is given as a SMILES string.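 Following 48 hours of exposure in 96-well plates, responses at five concentrations were used to interpolate endpoints linearly. GI50 = concentration required for 50% inhibition of growth. TGI is the concentration that stops growth completely.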 Where a SMILES comes first, the peptide text is derived from it. [ ]: non-standard residue; d: D form. pGlu = O=C1CC[CH](C(=O)O)N1; Thz = O=C(O)[CH]1CSCN1

Usually TGI stands for the concentration giving total growth inhibition. Low values mean greater sensitivity of the cells, high ones lower sensitivity of the cells. On to `O=C1CCC(C(=O)N2CSCC2C(=O)O)N1` (centres undefined) ([pGlu]-[Thz]-OH; configuration not given here), for which the TGI in the test with PC-3 prostate, with SK-MEL-5 melanoma, in the test with HS 578T breast, in the test with SNB-75 CNS, in the test on OVCAR-3 ovarian and in the test on HOP-62 NSCLC was more than 100 µM in each case. Besides, the TGI in the test with DU-145 prostate, in the test with KM12 colon, in the test on MALME-3M melanoma, in the test on HCC-2998 colon and with SF-295 CNS was more than 100 µM in each case.

`NS(=O)(=O)c1ccc(NC(=O)N/N=C/c2ccccc2[N+](=O)[O-])cc1`: the TGI in the test with PC-3 prostate, in the test on SK-MEL-5 melanoma, with HS 578T breast, with SNB-75 CNS, with OVCAR-3 ovarian and with HOP-62 NSCLC was more than 100 µM each time. Besides, the TGI with DU-145 prostate, in the test with KM12 colon, with MALME-3M melanoma, in the test with HCC-2998 colon and in the test on SF-295 CNS was more than 100 µM each time.

Usually GI50 stands for the concentration that inhibits growth by half. For `FC1(F)ON2CCc3ccccc3C2[C@H]1c1ccccc1` (some centres undefined), the GI50 with PC-3 prostate is more than 100 µM; in the test with SK-MEL-5 melanoma, more than 100 µM; with HS 578T breast it was 45.9 µM; with DU-145 prostate it was more than 100 µM; in the test on KM12 colon it was more than 100 µM; in the test on MALME-3M melanoma it was 14.5 µM. Besides, the GI50 in the test with HCC-2998 colon and in the test on SF-295 CNS was more than 100 µM throughout. Further, the TGI with PC-3 prostate was more than 100 µM; in the test on SK-MEL-5 melanoma it was more than 100 µM; in the test with HS 578T breast, more than 100 µM; in the test with SNB-75 CNS it was 70.8 µM; with OVCAR-3 ovarian, more than 100 µM; in the test on HOP-62 NSCLC, more than 100 µM. In addition, the TGI is more than 100 µM with DU-145 prostate; more than 100 µM in the test with KM12 colon; 88.8 µM in the test on MALME-3M melanoma; more than 100 µM with HCC-2998 colon; more than 100 µM in the test on SF-295 CNS.

As for `COC(=O)[C@H](Cc1ccccc1)NC(=O)c1ccc(CNC(=O)/C=C/c2ccc(OCc3ccccc3)cc2)cc1`, the TGI with PC-3 prostate came to 43.8 µM; with SK-MEL-5 melanoma, 33.4 µM; in the test on HS 578T breast it was 21.1 µM; in the test on SNB-75 CNS, 31.6 µM; in the test on OVCAR-3 ovarian, 28.2 µM; in the test with HOP-62 NSCLC, 26.3 µM. In addition, the total growth inhibition concentration (TGI) in the test on DU-145 prostate is 32.4 µM; in the test on KM12 colon it was more than 100 µM; in the test with MALME-3M melanoma, 11.5 µM; with HCC-2998 colon it was more than 100 µM; with SF-295 CNS, 35.7 µM.

Turning to `S=C(NCc1ccccc1)Nc1sc(=NCc2ccccc2)nc2sc3c(c12)CCN(N1CCc2c(sc4nc(=NCc5ccccc5)sc(NC(=S)NCc5ccccc5)c24)C1)C3`, the TGI in the test with PC-3 prostate was more than 49.8 µM; in the test on SK-MEL-5 melanoma it was more than 100 µM; in the test with HS 578T breast, more than 100 µM; in the test with SNB-75 CNS, more than 64.9 µM; with OVCAR-3 ovarian, more than 100 µM; with HOP-62 NSCLC it was more than 100 µM. Besides, the TGI is more than 90.8 µM in the test on DU-145 prostate; more than 67.5 µM in the test with KM12 colon; more than 100 µM with MALME-3M melanoma; more than 62 µM in the test with HCC-2998 colon; more than 100 µM in the test with SF-295 CNS.

As for `C=C1C2CCC3C4(C)CCCC(C)(C(=O)O)C4CCC3(C2)C1OC(=O)/C(C)=C/C` (centres undefined), the TGI in the test on PC-3 prostate was more than 100 µM; in the test on SK-MEL-5 melanoma it was 75.6 µM; in the test with HS 578T breast it was more than 100 µM; in the test on SNB-75 CNS, more than 100 µM; in the test on OVCAR-3 ovarian, 41 µM; with HOP-62 NSCLC, more than 100 µM. Besides, the TGI in the test on DU-145 prostate was more than 100 µM; in the test with KM12 colon, 35.1 µM; in the test with MALME-3M melanoma, more than 100 µM; in the test with HCC-2998 colon, 69.5 µM; with SF-295 CNS, 44.2 µM.

Take `C#CC1(O)CCC2[C@@H]3CCc4cc(Oc5nc(F)nc(-c6c(C)c(C(=O)OCC)n7ccccc67)n5)ccc4C3CC[C@@]21C` (some centres undefined): the TGI with PC-3 prostate, in the test on SK-MEL-5 melanoma, in the test with HS 578T breast, in the test with SNB-75 CNS, in the test with OVCAR-3 ovarian and with HOP-62 NSCLC was more than 100 µM throughout. In addition, the TGI in the test with DU-145 prostate, in the test with KM12 colon, with MALME-3M melanoma, in the test on HCC-2998 colon and in the test with SF-295 CNS was more than 100 µM throughout.

Turning to `COc1ccc(/C=N\N(C)Cc2cccc3ccsc23)cc1`, the TGI with PC-3 prostate, in the test on SK-MEL-5 melanoma, in the test with HS 578T breast, with SNB-75 CNS, in the test with OVCAR-3 ovarian and with HOP-62 NSCLC was more than 100 µM in each case. The concentration for total growth inhibition (TGI) in the test on DU-145 prostate, in the test with KM12 colon, in the test with MALME-3M melanoma, in the test on HCC-2998 colon and with SF-295 CNS was more than 100 µM in each case.

Take `COc1ccc(S(=O)(=O)Nc2ccc(-c3csc(N4C(=O)/C(=C/c5ccccc5[N+](=O)[O-])N=C4c4ccccc4)n3)cc2)cc1Cl`: the TGI in the test on PC-3 prostate, in the test on SK-MEL-5 melanoma, in the test on HS 578T breast, with SNB-75 CNS, in the test with OVCAR-3 ovarian and with HOP-62 NSCLC was more than 100 µM each time. The TGI in the test with DU-145 prostate was more than 100 µM; with KM12 colon, more than 100 µM; in the test on MALME-3M melanoma it was more than 100 µM; in the test on HCC-2998 colon it was 63.5 µM; with SF-295 CNS, more than 100 µM.

On to `Cc1nc(-c2ccccc2)cn2c1nc1ccccc12`, for which the TGI was 69.5 µM in the test on PC-3 prostate; 28.6 µM in the test with SK-MEL-5 melanoma; more than 87.5 µM with HS 578T breast; more than 52.2 µM in the test on SNB-75 CNS; 69.9 µM with OVCAR-3 ovarian; 49.6 µM in the test on HOP-62 NSCLC. Also, the total growth inhibition concentration (TGI) in the test on DU-145 prostate is more than 100 µM; in the test with KM12 colon, more than 70.3 µM; in the test with MALME-3M melanoma it was 48.9 µM; in the test with HCC-2998 colon, more than 100 µM; with SF-295 CNS, more than 65.8 µM.

Take `C#C[C@]1(O)CC[C@H]2[C@@H]3CCC4=C/C(=N\OCCN5CCCCC5)CC[C@]4(C)[C@H]3CC[C@@]21C`: the TGI in the test with PC-3 prostate amounted to 17.3 µM; in the test on SK-MEL-5 melanoma it was 6.19 µM; in the test with HS 578T breast, 8.86 µM; with SNB-75 CNS it was 17.1 µM; with OVCAR-3 ovarian, 16.4 µM; in the test on HOP-62 NSCLC, 24.4 µM. The TGI in the test on DU-145 prostate was determined as 23.1 µM; in the test with KM12 colon, 12.3 µM; in the test on MALME-3M melanoma, 21.6 µM; with HCC-2998 colon it was 35.2 µM; with SF-295 CNS, 10.6 µM.

The values above are taken from PubChem BioAssay (NCI).
